Results from ChEMBL document CHEMBL2384934, “Discovery of 3-phenyl-1H-5-pyrazolylamine derivatives containing a urea pharmacophore as potent and efficacious inhibitors of FMS-like tyrosine kinase-3 (FLT3)” (Bioorg Med Chem, 2013).
Activity calls are given as the source filed them. The calls are words filed in the database; no cut-off is given here.

Assays:
MOLM-13 [1] = assay: Antitumor activity against human MOLM13 cells xenografted in nu/nu mouse at 3 mg/kg, iv qd administered on days 1 to 5 and days 8 to 12; assay type: functional, organism-based; set-up: dose 3 mg/kg
U-937 = assay: cells; conditions: Homo sapiens, U-937, 72 h
Description: Cytotoxicity against human FLT3 negative U937 cells after 72 hrs by MTS assay

[2] = target: Tyrosine-protein kinase JAK3 (Homo sapiens) (UniProt P52333); assay: Inhibition of JAK3 (unknown origin) at 1 uM
[3] = target: Tyrosine-protein kinase JAK2 (Homo sapiens) (UniProt O60674); assay: Inhibition of JAK2 (unknown origin) at 1 uM
[4] = target: Glycogen synthase kinase-3 beta (Homo sapiens) (UniProt P49841); assay: Inhibition of GSK3B (unknown origin) at 1 uM
[5] = target: Receptor-type tyrosine-protein kinase FLT3 (Homo sapiens) (UniProt P36888); assay: Inhibition of FLT3 (unknown origin) at 1 uM
MOLM-13 [6] = assay: Antitumor activity against human MOLM13 cells xenografted in nu/nu mouse at 1mg/kg, iv qd administered on days 1 to 5 and days 8 to 12 measured for 5 days; assay type: functional, organism-based
[7] = target: Macrophage colony-stimulating factor 1 receptor (Homo sapiens) (UniProt P07333); assay: Inhibition of CSF1R (unknown origin) at 1 uM
cells = conditions: Homo sapiens, RS4-11, 72 h
Description: Cytotoxicity against human RS4:11 cells harboring wild type FLT3 after 72 hrs by MTS assay

[8] = target: Mast/stem cell growth factor receptor Kit (Homo sapiens) (UniProt P10721); assay: Inhibition of KIT (unknown origin) at 1 uM
Mast/stem cell growth factor receptor Kit (Homo sapiens), sequence (P10721 whole entry): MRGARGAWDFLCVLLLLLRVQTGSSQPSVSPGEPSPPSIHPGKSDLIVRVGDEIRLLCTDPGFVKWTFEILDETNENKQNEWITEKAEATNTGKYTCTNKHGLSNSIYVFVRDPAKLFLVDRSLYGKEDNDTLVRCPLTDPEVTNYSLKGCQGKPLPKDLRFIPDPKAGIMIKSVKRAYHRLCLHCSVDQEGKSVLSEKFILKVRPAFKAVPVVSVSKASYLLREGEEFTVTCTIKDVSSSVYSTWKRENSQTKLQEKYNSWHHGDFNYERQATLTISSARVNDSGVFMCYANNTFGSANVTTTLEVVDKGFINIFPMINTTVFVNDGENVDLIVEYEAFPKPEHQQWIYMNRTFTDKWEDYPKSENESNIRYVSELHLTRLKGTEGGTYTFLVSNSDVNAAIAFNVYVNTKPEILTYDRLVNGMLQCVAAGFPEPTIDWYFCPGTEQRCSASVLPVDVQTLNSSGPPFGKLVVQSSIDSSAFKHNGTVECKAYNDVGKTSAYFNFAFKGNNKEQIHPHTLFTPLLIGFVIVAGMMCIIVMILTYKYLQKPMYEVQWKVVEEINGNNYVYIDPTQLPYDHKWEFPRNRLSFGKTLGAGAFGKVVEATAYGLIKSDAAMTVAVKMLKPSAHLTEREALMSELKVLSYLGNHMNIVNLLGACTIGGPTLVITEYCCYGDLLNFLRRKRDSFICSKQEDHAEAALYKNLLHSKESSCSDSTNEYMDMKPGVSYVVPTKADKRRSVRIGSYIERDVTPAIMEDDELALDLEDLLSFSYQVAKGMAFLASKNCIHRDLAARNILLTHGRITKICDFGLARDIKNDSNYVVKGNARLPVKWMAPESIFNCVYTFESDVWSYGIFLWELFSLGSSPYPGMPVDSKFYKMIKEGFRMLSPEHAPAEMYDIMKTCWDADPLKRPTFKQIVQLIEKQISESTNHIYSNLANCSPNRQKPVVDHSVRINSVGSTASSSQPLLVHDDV

[9] = target: Mitogen-activated protein kinase 10 (Homo sapiens) (UniProt P53779); assay: Inhibition of MAPK10 (unknown origin) at 1 uM
[10] = target: Angiopoietin-1 receptor (Homo sapiens) (UniProt Q02763); assay: Inhibition of TEK (unknown origin) at 1 uM
Angiopoietin-1 receptor (Homo sapiens), sequence (Q02763 whole entry): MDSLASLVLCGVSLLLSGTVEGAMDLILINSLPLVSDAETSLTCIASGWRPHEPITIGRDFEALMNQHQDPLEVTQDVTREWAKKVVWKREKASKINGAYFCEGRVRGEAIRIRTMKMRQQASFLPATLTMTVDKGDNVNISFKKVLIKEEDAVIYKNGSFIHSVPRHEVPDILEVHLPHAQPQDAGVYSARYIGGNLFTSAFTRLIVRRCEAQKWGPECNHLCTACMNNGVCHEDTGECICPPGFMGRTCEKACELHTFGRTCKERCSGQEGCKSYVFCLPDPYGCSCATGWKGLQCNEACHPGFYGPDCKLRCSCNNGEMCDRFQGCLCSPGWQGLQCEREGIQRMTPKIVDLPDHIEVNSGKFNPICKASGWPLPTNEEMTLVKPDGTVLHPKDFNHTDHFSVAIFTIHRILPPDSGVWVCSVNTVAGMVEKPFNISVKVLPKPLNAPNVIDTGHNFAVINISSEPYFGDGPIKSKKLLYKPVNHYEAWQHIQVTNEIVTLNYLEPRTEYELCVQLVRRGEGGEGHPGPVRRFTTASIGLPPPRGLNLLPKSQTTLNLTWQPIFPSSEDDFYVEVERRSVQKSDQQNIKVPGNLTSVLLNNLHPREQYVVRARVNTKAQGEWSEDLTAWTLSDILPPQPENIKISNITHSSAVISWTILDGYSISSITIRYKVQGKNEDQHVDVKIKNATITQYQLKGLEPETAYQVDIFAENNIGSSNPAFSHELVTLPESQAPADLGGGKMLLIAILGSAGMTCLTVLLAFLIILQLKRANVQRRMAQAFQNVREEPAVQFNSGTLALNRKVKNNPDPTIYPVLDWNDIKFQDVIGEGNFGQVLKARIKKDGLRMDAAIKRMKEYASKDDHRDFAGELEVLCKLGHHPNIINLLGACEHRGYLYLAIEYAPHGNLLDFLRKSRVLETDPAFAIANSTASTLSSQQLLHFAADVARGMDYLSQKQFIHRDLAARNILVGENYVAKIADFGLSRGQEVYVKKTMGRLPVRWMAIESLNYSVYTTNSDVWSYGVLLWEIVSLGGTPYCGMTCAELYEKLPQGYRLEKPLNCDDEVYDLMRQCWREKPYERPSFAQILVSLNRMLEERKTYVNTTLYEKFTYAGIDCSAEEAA

[11] = target: Dual specificity mitogen-activated protein kinase kinase 1 (Homo sapiens) (UniProt Q02750); assay: Inhibition of MAP2K1 (unknown origin) at 1 uM
[12] = target: Platelet-derived growth factor receptor alpha (Homo sapiens) (UniProt P16234); assay: Inhibition of PDGFRA (unknown origin) at 1 uM by kinase Glo assay
[13] = target: CDK2/Cyclin A2 (Homo sapiens) (UniProt P24941+P20248); assay: Inhibition of CDK2/cyclin A (unknown origin) at 1 uM; assay type: protein-complex assay
MOLM-13 [14] = assay: cells; conditions: Homo sapiens, MOLM-13, 72 h
[15] = target: Glycogen synthase kinase-3 alpha (Homo sapiens) (UniProt P49840); assay: Inhibition of GSK3A (unknown origin) at 1 uM
[16] = target: T1, Receptor-type tyrosine-protein kinase FLT3 (Homo sapiens, UniProt P36888, ITD); assay: Inhibition of FLT3/ITD mutant phosphorylation in human MV4-11 cells after 1 hr by Western blot analysis; assay type: cell-based
[17] = target: T1, Receptor-type tyrosine-protein kinase FLT3; assay: Inhibition of FLT3/ITD mutant-mediated stat5 phosphorylation in human MV4-11 cells after 1 hr by Western blot analysis; assay type: cell-based
Mus musculus = assay: Toxicity in nu/nu mouse xenografted with human MOLM13 cells at 1 to 10 mg/kg, iv qd administered on days 1 to 5 and day 8 to 12; assay type: organism-based, MOLM-13; set-up: route intravenous; conditions: in vivo
[18] = target: Aurora kinase B (Homo sapiens) (UniProt Q96GD4); assay: Inhibition of AURKB (unknown origin) at 1 uM
Aurora kinase B (Homo sapiens), sequence (Q96GD4 whole entry): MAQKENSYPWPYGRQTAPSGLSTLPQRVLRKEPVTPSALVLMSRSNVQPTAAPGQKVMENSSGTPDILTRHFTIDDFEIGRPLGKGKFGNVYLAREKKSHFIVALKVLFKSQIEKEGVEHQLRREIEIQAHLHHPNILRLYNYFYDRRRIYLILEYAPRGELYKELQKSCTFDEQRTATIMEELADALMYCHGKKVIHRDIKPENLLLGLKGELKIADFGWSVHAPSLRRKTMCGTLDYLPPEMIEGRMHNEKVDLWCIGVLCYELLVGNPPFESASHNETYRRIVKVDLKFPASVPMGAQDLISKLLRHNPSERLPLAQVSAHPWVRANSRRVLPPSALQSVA

MOLM-13 [19] = assay: Antitumor activity against human MOLM13 cells xenografted in nu/nu mouse at 3 mg/kg, iv qd administered on days 1 to 5 and days 8 to 12 measured on day 11; assay type: functional; conditions: MOLM-13, 264 h, read-out: TGI
[20] = Plasma clearance in Sprague-Dawley rat at 2 mg/kg, iv; assay type: ADME, organism-based; set-up: dose 2 mg/kg, route intravenous
[21] = target: T2, AMP-activated protein kinase (AMPK) alpha-1/beta-1/gamma-1 (Homo sapiens) (UniProt P54619+Q9Y478+Q13131); assay: Inhibition of AMPK A1/B1/G1 (unknown origin) at 1 uM by kinase Glo assay; assay type: protein-complex assay
T2 sequence (P54619 whole entry): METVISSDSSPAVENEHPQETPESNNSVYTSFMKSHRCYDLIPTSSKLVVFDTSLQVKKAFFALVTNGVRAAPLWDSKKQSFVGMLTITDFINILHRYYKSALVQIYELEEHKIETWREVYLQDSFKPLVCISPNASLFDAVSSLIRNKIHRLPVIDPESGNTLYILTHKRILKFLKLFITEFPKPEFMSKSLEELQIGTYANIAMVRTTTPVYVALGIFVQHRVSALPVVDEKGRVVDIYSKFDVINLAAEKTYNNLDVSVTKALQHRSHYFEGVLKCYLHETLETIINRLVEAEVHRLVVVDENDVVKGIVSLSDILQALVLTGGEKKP
T2 sequence (Q13131 whole entry partner): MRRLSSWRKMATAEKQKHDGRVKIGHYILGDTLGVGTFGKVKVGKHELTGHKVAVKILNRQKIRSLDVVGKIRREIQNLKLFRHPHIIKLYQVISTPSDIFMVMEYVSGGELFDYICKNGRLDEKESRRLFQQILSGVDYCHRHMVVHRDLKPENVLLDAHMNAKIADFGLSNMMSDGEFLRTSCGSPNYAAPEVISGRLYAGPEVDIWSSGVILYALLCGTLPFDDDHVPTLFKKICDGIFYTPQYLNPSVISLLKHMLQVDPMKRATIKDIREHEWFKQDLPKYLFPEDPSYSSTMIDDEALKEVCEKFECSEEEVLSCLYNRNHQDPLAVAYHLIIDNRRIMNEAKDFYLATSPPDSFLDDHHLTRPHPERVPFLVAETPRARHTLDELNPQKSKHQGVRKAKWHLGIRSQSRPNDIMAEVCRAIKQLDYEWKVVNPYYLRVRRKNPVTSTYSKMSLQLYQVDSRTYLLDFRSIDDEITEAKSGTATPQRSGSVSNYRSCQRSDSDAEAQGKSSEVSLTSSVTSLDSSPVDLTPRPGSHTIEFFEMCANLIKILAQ
T2 sequence (Q9Y478 2-270 partner limits assumed): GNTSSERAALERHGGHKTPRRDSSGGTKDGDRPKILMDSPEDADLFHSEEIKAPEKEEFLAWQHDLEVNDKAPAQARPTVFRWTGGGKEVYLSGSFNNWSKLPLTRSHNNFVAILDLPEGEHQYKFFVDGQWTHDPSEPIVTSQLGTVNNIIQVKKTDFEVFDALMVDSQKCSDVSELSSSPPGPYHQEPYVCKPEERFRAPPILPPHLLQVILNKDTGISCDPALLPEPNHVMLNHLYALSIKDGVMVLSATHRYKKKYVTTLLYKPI

MOLM-13 [22] = assay: Antitumor activity against human MOLM13 cells xenografted in nu/nu mouse at 10 mg/kg, iv qd administered on days 1 to 5 and day 8 to 12 measured after 48 days; assay type: functional; conditions: read-out: TGI
[23] = target: Vascular endothelial growth factor receptor 2 (Homo sapiens, UniProt P35968); assay: Inhibition of KDR (unknown origin) at 1 uM by kinase Glo assay
Vascular endothelial growth factor receptor 2, sequence (P35968 whole entry): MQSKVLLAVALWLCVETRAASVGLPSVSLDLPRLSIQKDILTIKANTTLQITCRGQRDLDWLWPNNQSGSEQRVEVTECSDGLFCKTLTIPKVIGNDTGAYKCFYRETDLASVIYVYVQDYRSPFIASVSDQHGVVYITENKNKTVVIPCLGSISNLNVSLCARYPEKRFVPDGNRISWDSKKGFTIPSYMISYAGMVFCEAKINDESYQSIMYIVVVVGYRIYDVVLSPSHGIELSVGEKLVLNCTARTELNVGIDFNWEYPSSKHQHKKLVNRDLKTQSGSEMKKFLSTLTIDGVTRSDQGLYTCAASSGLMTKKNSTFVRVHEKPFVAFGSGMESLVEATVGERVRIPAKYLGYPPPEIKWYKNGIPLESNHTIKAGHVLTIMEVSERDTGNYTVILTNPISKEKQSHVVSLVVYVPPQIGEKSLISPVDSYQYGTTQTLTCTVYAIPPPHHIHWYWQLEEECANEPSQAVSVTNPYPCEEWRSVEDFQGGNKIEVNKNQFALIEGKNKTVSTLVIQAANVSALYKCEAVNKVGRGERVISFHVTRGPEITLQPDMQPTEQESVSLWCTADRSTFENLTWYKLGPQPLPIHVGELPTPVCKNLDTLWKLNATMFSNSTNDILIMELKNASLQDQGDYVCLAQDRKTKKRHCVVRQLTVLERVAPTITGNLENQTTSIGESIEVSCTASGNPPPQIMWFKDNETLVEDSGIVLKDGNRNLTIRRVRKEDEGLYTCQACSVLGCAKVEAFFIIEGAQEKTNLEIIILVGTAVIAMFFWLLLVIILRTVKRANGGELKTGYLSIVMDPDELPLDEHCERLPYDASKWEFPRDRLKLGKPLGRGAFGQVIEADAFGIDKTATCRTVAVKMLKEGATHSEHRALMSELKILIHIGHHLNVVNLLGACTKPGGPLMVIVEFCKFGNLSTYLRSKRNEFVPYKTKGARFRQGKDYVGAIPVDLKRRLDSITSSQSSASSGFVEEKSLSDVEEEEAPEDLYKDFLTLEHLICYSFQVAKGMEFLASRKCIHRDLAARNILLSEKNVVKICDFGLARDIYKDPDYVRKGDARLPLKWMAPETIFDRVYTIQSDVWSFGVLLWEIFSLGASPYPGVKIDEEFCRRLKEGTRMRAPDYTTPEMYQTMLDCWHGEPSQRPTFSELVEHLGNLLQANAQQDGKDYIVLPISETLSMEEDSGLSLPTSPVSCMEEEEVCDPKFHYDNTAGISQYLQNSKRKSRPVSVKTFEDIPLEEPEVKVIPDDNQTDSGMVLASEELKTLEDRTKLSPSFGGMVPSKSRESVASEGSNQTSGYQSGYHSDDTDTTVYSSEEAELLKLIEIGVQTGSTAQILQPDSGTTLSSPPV

[24] = target: T2, AMP-activated protein kinase (AMPK) alpha-1/beta-1/gamma-1 (Homo sapiens); assay: Inhibition of Ampk A1/B1/G1 (unknown origin) at 1 uM; assay type: protein-complex assay
[25] = target: T3, Receptor-type tyrosine-protein kinase FLT3 (Homo sapiens, UniProt P36888); assay: biochemical; assay type: cell-based, Sf9
T3 sequence (P36888 whole entry): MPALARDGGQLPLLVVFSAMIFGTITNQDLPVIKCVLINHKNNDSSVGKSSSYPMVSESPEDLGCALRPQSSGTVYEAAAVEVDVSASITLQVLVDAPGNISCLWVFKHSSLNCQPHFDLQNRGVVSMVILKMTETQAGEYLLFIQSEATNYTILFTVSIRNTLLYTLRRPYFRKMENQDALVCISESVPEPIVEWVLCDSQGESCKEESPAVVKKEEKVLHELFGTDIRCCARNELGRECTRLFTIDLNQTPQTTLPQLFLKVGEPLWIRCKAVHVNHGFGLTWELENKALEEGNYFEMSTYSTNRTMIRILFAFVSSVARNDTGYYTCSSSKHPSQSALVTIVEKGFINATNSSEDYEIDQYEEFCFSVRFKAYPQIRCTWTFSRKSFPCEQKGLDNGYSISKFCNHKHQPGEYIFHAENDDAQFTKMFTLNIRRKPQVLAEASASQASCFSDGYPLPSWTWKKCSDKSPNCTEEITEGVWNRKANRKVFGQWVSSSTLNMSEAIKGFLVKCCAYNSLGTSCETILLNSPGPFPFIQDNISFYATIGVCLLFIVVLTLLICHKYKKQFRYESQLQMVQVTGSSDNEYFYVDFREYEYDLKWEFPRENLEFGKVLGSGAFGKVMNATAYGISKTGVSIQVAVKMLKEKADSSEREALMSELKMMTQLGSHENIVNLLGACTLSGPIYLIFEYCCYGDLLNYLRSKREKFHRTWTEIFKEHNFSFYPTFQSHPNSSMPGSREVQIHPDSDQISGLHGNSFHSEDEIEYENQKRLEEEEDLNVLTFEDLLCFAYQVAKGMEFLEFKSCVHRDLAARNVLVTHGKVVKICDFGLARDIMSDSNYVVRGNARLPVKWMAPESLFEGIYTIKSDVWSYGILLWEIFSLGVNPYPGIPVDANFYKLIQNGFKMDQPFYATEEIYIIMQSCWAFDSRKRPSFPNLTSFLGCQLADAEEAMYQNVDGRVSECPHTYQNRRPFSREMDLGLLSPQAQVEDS
Description: Inhibition of wild type GST tagged FLT3 kinase (567 to 993) (unknown origin) transfected in insect sf9 cells after 4 hrs by wallac counting analysis

Question: With `CC(C)(C)c1cc(NC(=O)NCc2ccc(-c3cc(NC(=O)c4ccc(OCCN5CCOCC5)cc4)[nH]n3)cc2)no1` as the compound, how does the inhibition (MOLM-13 [1]) read?
Answer: The inhibition was “Active”.

Question: And the GI50 (U-937)?
Answer: Its GI50 is > 20000 nM.

Question: And the inhibition [2]?
Answer: The inhibition was 27%.

Question: What about the inhibition [3] of the same compound?
Answer: The inhibition was 79%.

Question: And the inhibition [4]?
Answer: Its inhibition is 2%.

Question: And the inhibition [5]?
Answer: The inhibition was 100%.

Question: What about the inhibition (MOLM-13 [6]) of the same compound?
Answer: Its inhibition is “Active”.

Question: What about the inhibition [7] of the same compound?
Answer: The inhibition was 95%.

Question: And the GI50 (cells)?
Answer: Its GI50 is 900 nM.

Question: What about the inhibition [8] of the same compound?
Answer: The inhibition was 68%.

Question: And the inhibition [9]?
Answer: The inhibition was -3%.

Question: What about the inhibition [10] of the same compound?
Answer: Its inhibition is 83%.

Question: And the inhibition [11]?
Answer: The inhibition was 13%.

Question: What about the inhibition [12] of the same compound?
Answer: The inhibition was 85%.

Question: And the inhibition [13]?
Answer: The inhibition was 5%.

Question: And the GI50 (MOLM-13 [14])?
Answer: The GI50 was 3 nM.

Question: And the inhibition [15]?
Answer: The inhibition was 6%.

Question: What about the IC50 [16] of the same compound?
Answer: The IC50 was 1 nM.

Question: What about the IC50 [17] of the same compound?
Answer: Its IC50 is 1 nM.

Question: What about the Activity (Mus musculus) of the same compound?
Answer: The Activity was “Non-toxic”.

Question: What about the inhibition [18] of the same compound?
Answer: Its inhibition is 79%.

Question: And the inhibition in vivo at 3 mg/kg (MOLM-13 [19])?
Answer: The inhibition in vivo at 3 mg/kg was 7%.

Question: What about the clearance [20] of the same compound?
Answer: The clearance was 10.7 mL/min/kg.

Question: And the inhibition [21]?
Answer: Its inhibition is 48%.

Question: What about the inhibition in vivo at 10 mg/kg (MOLM-13 [22]) of the same compound?
Answer: Its inhibition in vivo at 10 mg/kg is 70%.

Question: And the inhibition [23]?
Answer: Its inhibition is 99%.

Question: And the inhibition [24]?
Answer: Its inhibition is 94%.

Question: What about the IC50 [25] of the same compound?
Answer: Its IC50 is 18 nM.
